One test has as its target JAK2 (Homo sapiens (Human), UniProt O60674). Briefly: Jak Biochemical HTRF Assay, JAK2. From the text: (§1) Jak Biochemical HTRF Assay Protocol
(§2) Subsequent reagent additions employed an Agilent Bravo.
On the technique in general: Time-resolved FRET reads energy transfer from a long-lived donor to a nearby acceptor.

In the next test the target is JAK1 (Homo sapiens (Human), UniProt P23458). In words: Jak Biochemical HTRF Assay, JAK1. The settings on record: read-out: JAK1 IC50.
JAK1, sequence (P23458 875-1153): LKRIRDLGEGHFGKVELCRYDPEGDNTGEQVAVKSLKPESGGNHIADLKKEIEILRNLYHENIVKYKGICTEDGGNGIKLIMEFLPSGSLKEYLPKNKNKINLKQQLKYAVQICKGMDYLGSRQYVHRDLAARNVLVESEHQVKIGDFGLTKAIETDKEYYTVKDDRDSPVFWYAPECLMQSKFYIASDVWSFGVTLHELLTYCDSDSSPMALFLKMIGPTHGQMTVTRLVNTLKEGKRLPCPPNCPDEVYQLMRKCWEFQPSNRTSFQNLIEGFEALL
Source text: as §1, §2

The mark [1] stands for this setting: HTRF biochemical assay, GST-tagged catalytic domain, top concentration tested […].

From patent US9328099B2, “Cyanomethylpyrazole carboxamides as janus kinase inhibitors” (Merck Sharp & Dohme Corp., priority 2011, dated 2016) come the findings set out here.

Read-outs that look alike come from different tables or passages of the source.

JAK2, sequence (O60674 849-1124): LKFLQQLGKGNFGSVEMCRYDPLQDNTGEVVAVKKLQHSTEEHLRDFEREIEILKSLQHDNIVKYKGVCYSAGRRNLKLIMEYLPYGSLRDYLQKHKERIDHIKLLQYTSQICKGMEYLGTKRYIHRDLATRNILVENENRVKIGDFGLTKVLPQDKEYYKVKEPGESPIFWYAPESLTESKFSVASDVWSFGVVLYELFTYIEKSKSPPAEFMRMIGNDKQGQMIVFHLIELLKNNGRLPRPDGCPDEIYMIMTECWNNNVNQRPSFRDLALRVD

Regarding `N#CCC1(n2cc(C(N)=O)c(Nc3ccccc3)n2)CCN(Cc2ccc(-c3ccccc3)cc2)CC1` [Example 21-1, 1-[1-(Biphenyl-4-ylmethyl)-4-(cyanomethyl)piperidin-4-yl]-3-(phenylamino)-1H-pyrazole-4-carboxamide], the IC50 worked out at 46 nM against JAK2 (setting [1]) and 6 nM at JAK1 (setting [1]).
As for `C[Si](C)(C)COC(=O)N1CCC(CC#N)(n2cc(C(N)=O)c(Nc3ccc(F)cc3)n2)CC1` [Example 30-10, (trimethylsilyl)methyl 4-(4-carbamoyl-3-(4-fluorophenylamino)-1H-pyrazol-1-yl)-4-(cyanomethyl)piperidine-1-carboxylate], the IC50 at JAK2 came out at 745 nM; at JAK1 it was 21 nM.
In the case of `N#CCC1(n2cc(C(N)=O)c(Nc3ccc(F)cc3)n2)CCC(NC2CCOCC2)CC1` (stereo not drawn) [Example 40-5, Cis or trans 1-[1-(cyanomethyl)-4-(tetrahydro-2H-pyran-4-ylamino)cyclohexyl]-3-[(4-fluorophenyl)amino]-1H-pyrazole-4-carboxamide], the IC50 against JAK2 (setting [1]) is over 1500 nM; at JAK1 (setting [1]), 449 nM.
Turning to `N#CCC1(n2cc(C(N)=O)c(Nc3cncc(F)c3)n2)CCN(C(=O)OCC(F)(F)F)CC1` [Example 10-8, 2,2,2-trifluoroethyl 4-(4-carbamoyl-3-(5-fluoropyridin-3-ylamino)-1H-pyrazol-1-yl)-4-(cyanomethyl)piperidine-1-carboxylate], the values for the IC50 on JAK2 (setting [1]) and at JAK1 (setting [1]) were 21 nM and 0.7 nM, respectively.
For `CS(=O)(=O)c1ccc(Nc2nn(C3(CC#N)CCCCC3)cc2C(N)=O)cc1` [Example 2-14, 1-[1-(cyanomethyl)cyclohexyl]-3-{[4-(methylsulfonyl)phenyl]amino}-1H-pyrazole-4-carboxamide] the same measures were 193 nM and 20 nM.
The like results for `N#CCC1(n2cc(C(N)=O)c(Nc3ccccc3)n2)CN(C(=O)OC2CCOC2)C1` (stereo not shown) [Example 30-62, tetrahydrofuran-3-yl 3-[4-carbamoyl-3-(phenylamino)-1H-pyrazol-1-yl]-3-(cyanomethyl)azetidine-1-carboxylate] were, in that order, 102 nM and 5 nM.
Regarding `N#CCC1(n2cc(C(N)=O)c(Nc3ccnc(F)c3)n2)CCC(Nc2ccc(Cl)cc2)CC1` (stereo not drawn) [Example 40-61, Cis or trans 1-{4-[(4-chlorophenyl)amino]-1-(cyanomethyl)cyclohexyl}-3-[(2-fluoropyridin-4-yl)amino]-1H-pyrazole-4-carboxamide], the IC50 worked out at 3 nM on JAK2 (setting [1]) and 0.06 nM at JAK1 (setting [1]).
Consider `CC(C)(O)Cc1cccc(N2CCC(CC#N)(n3cc(C(N)=O)c(Nc4ccc(F)cc4)n3)CC2)n1` [Example 3-49, 1-{4-(cyanomethyl)-1-[6-(2-hydroxy-2-methylpropyl)pyridin-2-yl]piperidin-4-yl}-3-[(4-fluorophenyl)amino]-1H-pyrazole-4-carboxamide], for which the 50% inhibitory concentration (IC50) worked out at 147 nM against JAK2 (setting [1]) and 5 nM on JAK1 (setting [1]).
For `CC(C)(C)OC(=O)N1CCC(CC#N)(n2cc(C(N)=O)c(Nc3ccccc3)n2)C1` (stereo not shown) [Example 2-17, tert-butyl 3-[4-carbamoyl-3-(phenylamino)-1H-pyrazol-1-yl]-3-(cyanomethyl)pyrrolidine-1-carboxylate] the same measures were 27 nM and 2 nM.
As for `CC(C)(C)OC(=O)N1CCC(CC#N)(n2cc(C(N)=O)c(Nc3cncc(F)c3)n2)CC1` [Example 9-35, tert-butyl 4-{4-carbamoyl-3-[(5-fluoropyridin-3-yl)amino]-1H-pyrazol-1-yl}-4-(cyanomethyl)piperidine-1-carboxylate], the IC50 against JAK2 (setting [1]) was 16 nM; at JAK1 (setting [1]), 1 nM.
For `CC1(COC(=O)N2CCC(CC#N)(n3cc(C(N)=O)c(Nc4ccc(F)cc4)n3)CC2)CC1` [Example 30-8, (1-methylcyclopropyl)methyl 4-(4-carbamoyl-3-(4-fluorophenylamino)-1H-pyrazol-1-yl)-4-(cyanomethyl)piperidine-1-carboxylate] the same measures were 72 nM and 1 nM.

In general, IC50 refers to the concentration needed to halve the response being measured.
